31 molecules from patent US12441691B2 (Cytokinetics, Inc., priority 2020, dated 2025) can be followed below.

The experiment has as its system rabbit skeletal myofibrils (fast skeletal myofibrils). In words: Activation of fast skeletal myofibrils (PUMA assay, AC1.4). It is filed as biochemical. Particulars: calcium at pCa25, AC1.4 = concentration at which the compound increased the enzymatic activity. The procedure, abridged:
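In 12 mM PIPES pH 6.8 with 2 mM MgCl2 and 1 mM DTT, Triton-washed rabbit skeletal myofibrils were run at the pCa25 calcium level. Myosin-made ADP was recycled through a PK/LDH coupled system; NADH loss read at 340 nm.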
Turning to `CC[C@H](C)[C@H]1C(=O)Nc2ccccc2CN1C(=O)c1ccc2[nH]c(C(N)=O)cc2n1` [Compound 169, 5-((S)-3-((S)-sec-butyl)-2-oxo-2,3,4,5-tetrahydro-1H-benzo[e][1,4]diazepine-4-carbonyl)-1H-pyrrolo[3,2-b]pyridine-2-carboxamide], the AC1.4 stood at 0.06 µM.

Turning to `CC[C@H](C)[C@H]1C(=O)Nc2ccccc2CN1C(=O)c1ccc(=O)n(CCO)c1` [Compound 170, (S)-3-((S)-sec-butyl)-4-(1-(2-hydroxyethyl)-6-oxo-1,6-dihydropyridine-3-carbonyl)-1,3,4,5-tetrahydro-2H-benzo[e][1,4]diazepin-2-one], the AC1.4 is 0.79 µM.

Consider `CC[C@H](C)[C@H]1C(=O)Nc2ccccc2CN1C(=O)c1nc2cccnc2[nH]1` [Compound 171, (S)-3-((S)-sec-butyl)-4-(3H-imidazo[4,5-b]pyridine-2-carbonyl)-1,3,4,5-tetrahydro-2H-benzo[e][1,4]diazepin-2-one], for which the AC1.4 came out at 0.03 µM.

As for `CC[C@H](C)[C@H]1C(=O)Nc2ccccc2CN1C(=O)c1ccn(C)c(=O)c1` [Compound 172, (S)-3-((S)-sec-butyl)-4-(1-methyl-2-oxo-1,2-dihydropyridine-4-carbonyl)-1,3,4,5-tetrahydro-2H-benzo[e][1,4]diazepin-2-one], the AC1.4 was determined as 0.63 µM.

For the molecule `CC[C@H](C)[C@H]1C(=O)Nc2ccccc2CN1C(=O)c1cnn(CC(N)=O)c1` [Compound 173, 2-(4-((S)-3-((S)-sec-butyl)-2-oxo-2,3,4,5-tetrahydro-1H-benzo[e][1,4]diazepine-4-carbonyl)-1H-pyrazol-1-yl)acetamide], the AC1.4 turned out to be 0.22 µM.

For the molecule `CC[C@H](C)[C@H]1C(=O)Nc2ccccc2CN1C(=O)c1ccc(C(=O)NCCO)[nH]1` [Compound 174, 5-((S)-3-((S)-sec-butyl)-2-oxo-2,3,4,5-tetrahydro-1H-benzo[e][1,4]diazepine-4-carbonyl)-N-(2-hydroxyethyl)-1H-pyrrole-2-carboxamide], the AC1.4 came to 0.03 µM.

For `CC[C@H](C)[C@H]1C(=O)Nc2ccccc2CN1C(=O)c1ccc(C(=O)NCC(O)CO)[nH]1` (stereo partly drawn) [Compound 175, 5-((S)-3-((S)-sec-butyl)-2-oxo-2,3,4,5-tetrahydro-1H-benzo[e][1,4]diazepine-4-carbonyl)-N-(2,3-dihydroxypropyl)-1H-pyrrole-2-carboxamide], the AC1.4 came to 0.04 µM.

Consider `CC[C@H](C)[C@H]1C(=O)Nc2ccccc2CN1C(=O)c1cc2c(=O)[nH]ncc2[nH]1` [Compound 176, (S)-3-((S)-sec-butyl)-4-(4-oxo-4,5-dihydro-1H-pyrrolo[2,3-d]pyridazine-2-carbonyl)-1,3,4,5-tetrahydro-2H-benzo[e][1,4]diazepin-2-one], for which the AC1.4 stood at 0.05 µM.

Consider `CC[C@H](C)[C@H]1C(=O)Nc2ccccc2CN1C(=O)[C@@H]1CCCN1` [Compound 177, (S)-4-(L-prolyl)-3-((S)-sec-butyl)-1,3,4,5-tetrahydro-2H-benzo[e][1,4]diazepin-2-one], for which the AC1.4 worked out at 2.64 µM.

With `CC[C@H](C)[C@H]1C(=O)Nc2ccccc2CN1C(=O)[C@H]1CCCN1` [Compound 178, (S)-4-(D-prolyl)-3-((S)-sec-butyl)-1,3,4,5-tetrahydro-2H-benzo[e][1,4]diazepin-2-one], the AC1.4 amounted to 3.37 µM.

In the case of `CC[C@H](C)[C@H]1C(=O)Nc2ccccc2CN1C(=O)c1cn(C)nc1CCO` [Compound 179, (S)-3-((S)-sec-butyl)-4-(3-(2-hydroxyethyl)-1-methyl-1H-pyrazole-4-carbonyl)-1,3,4,5-tetrahydro-2H-benzo[e][1,4]diazepin-2-one], the AC1.4 is 2.27 µM.

With `CC[C@H](C)[C@H]1C(=O)Nc2ccccc2CN1C(=O)c1ccc(C(=O)N2CC(O)C2)[nH]1` [Compound 180, (S)-3-((S)-sec-butyl)-4-(5-(3-hydroxyazetidine-1-carbonyl)-1H-pyrrole-2-carbonyl)-1,3,4,5-tetrahydro-2H-benzo[e][1,4]diazepin-2-one], the AC1.4 worked out at 0.10 µM.

For `CC[C@H](C)[C@H]1C(=O)Nc2ccccc2CN1C(=O)c1cc2nccnc2[nH]1` [Compound 181, (S)-3-((S)-sec-butyl)-4-(5H-pyrrolo[2,3-b]pyrazine-6-carbonyl)-1,3,4,5-tetrahydro-2H-benzo[e][1,4]diazepin-2-one], the AC1.4 was 0.04 µM.

`CC[C@H](C)[C@H]1C(=O)Nc2ccccc2CN1C(=O)c1cnn(CCO)c1N` [Compound 182, (S)-4-(5-amino-1-(2-hydroxyethyl)-1H-pyrazole-4-carbonyl)-3-((S)-sec-butyl)-1,3,4,5-tetrahydro-2H-benzo[e][1,4]diazepin-2-one]: the AC1.4 was 0.07 µM.

Turning to `CC[C@H](C)[C@H]1C(=O)Nc2ccccc2CN1C(=O)CCN1CC[C@H](O)C1` [Compound 184, (S)-3-((S)-sec-butyl)-4-(3-((S)-3-hydroxypyrrolidin-1-yl)propanoyl)-1,3,4,5-tetrahydro-2H-benzo[e][1,4]diazepin-2-one], the AC1.4 was found to be 0.55 µM.

In the case of `CC[C@H](C)[C@H]1C(=O)Nc2ccccc2CN1C(=O)CCN1CC[C@@H](O)C1` [Compound 185, (S)-3-((S)-sec-butyl)-4-(3-((R)-3-hydroxypyrrolidin-1-yl)propanoyl)-1,3,4,5-tetrahydro-2H-benzo[e][1,4]diazepin-2-one], the AC1.4 was found to be 0.92 µM.

Take `CC[C@H](C)[C@H]1C(=O)Nc2ccccc2CN1C(=O)CCN1CCC[C@H]1C(N)=O` [Compound 186, (S)-1-(3-((S)-3-((S)-sec-butyl)-2-oxo-1,2,3,5-tetrahydro-4H-benzo[e][1,4]diazepin-4-yl)-3-oxopropyl)pyrrolidine-2-carboxamide]: the AC1.4 worked out at 2.18 µM.

For the molecule `CC[C@H](C)[C@H]1C(=O)Nc2ccccc2CN1C(=O)CCN1CCC[C@@H]1C(N)=O` [Compound 187, (R)-1-(3-((S)-3-((S)-sec-butyl)-2-oxo-1,2,3,5-tetrahydro-4H-benzo[e][1,4]diazepin-4-yl)-3-oxopropyl)pyrrolidine-2-carboxamide], the AC1.4 came out at 1.39 µM.

Take `CC[C@H](C)[C@H]1C(=O)Nc2ccccc2CN1C(=O)[C@H]1CCCN1CCC(N)=O` [Compound 188, 3-((R)-2-((S)-3-((S)-sec-butyl)-2-oxo-2,3,4,5-tetrahydro-1H-benzo[e][1,4]diazepine-4-carbonyl)pyrrolidin-1-yl)propanamide]: the AC1.4 came out at 3.46 µM.

Take `CC[C@H](C)[C@H]1C(=O)Nc2ccccc2CN1C(=O)c1cn(C)nn1` [Compound 189, (S)-3-((S)-sec-butyl)-4-(1-methyl-1H-1,2,3-triazole-4-carbonyl)-1,3,4,5-tetrahydro-2H-benzo[e][1,4]diazepin-2-one]: the AC1.4 came out at 0.10 µM.

On to `CC[C@H](C)[C@H]1C(=O)Nc2ccccc2CN1C(=O)c1ccnnc1` [Compound 190, (S)-3-((S)-sec-butyl)-4-(pyridazine-4-carbonyl)-1,3,4,5-tetrahydro-2H-benzo[e][1,4]diazepin-2-one], for which the AC1.4 was 0.54 µM.

Consider `CC[C@H](C)[C@H]1C(=O)Nc2ccccc2CN1C(=O)c1cncnc1` [Compound 191, (S)-3-((S)-sec-butyl)-4-(pyrimidine-5-carbonyl)-1,3,4,5-tetrahydro-2H-benzo[e][1,4]diazepin-2-one], for which the AC1.4 came out at 0.19 µM.

Consider `CC[C@H](C)[C@H]1C(=O)Nc2ccccc2CN1C(=O)c1cccnn1` [Compound 192, (S)-3-((S)-sec-butyl)-4-(pyridazine-3-carbonyl)-1,3,4,5-tetrahydro-2H-benzo[e][1,4]diazepin-2-one], for which the AC1.4 was 0.19 µM.

Take `CC[C@H](C)[C@H]1C(=O)Nc2ccccc2CN1C(=O)[C@@H]1CC(=O)N(C)C1` [Compound 193, (S)-3-((S)-sec-butyl)-4-((R)-1-methyl-5-oxopyrrolidine-3-carbonyl)-1,3,4,5-tetrahydro-2H-benzo[e][1,4]diazepin-2-one]: the AC1.4 was 0.72 µM.

Consider `CC[C@H](C)[C@H]1C(=O)Nc2ccccc2CN1C(=O)[C@H]1CC(=O)N(C)C1` [Compound 194, (S)-3-((S)-sec-butyl)-4-((S)-1-methyl-5-oxopyrrolidine-3-carbonyl)-1,3,4,5-tetrahydro-2H-benzo[e][1,4]diazepin-2-one], for which the AC1.4 came to 1.52 µM.

Take `CC[C@H](C)[C@H]1C(=O)Nc2ccccc2CN1C(=O)CNC(C)=O` [Compound 195, N-(2-((S)-3-((S)-sec-butyl)-2-oxo-1,2,3,5-tetrahydro-4H-benzo[e][1,4]diazepin-4-yl)-2-oxoethyl)acetamide]: the AC1.4 came out at 1.84 µM.

As for `CC[C@H](C)[C@H]1C(=O)Nc2ccccc2CN1C(=O)[C@H](C)NC(C)=O` [Compound 196, N-((S)-1-((S)-3-((S)-sec-butyl)-2-oxo-1,2,3,5-tetrahydro-4H-benzo[e][1,4]diazepin-4-yl)-1-oxopropan-2-yl)acetamide], the AC1.4 worked out at 2.09 µM.

`CC[C@H](C)[C@H]1C(=O)Nc2ccccc2CN1C(=O)[C@H]1CCCN1C(C)=O` [Compound 197, (S)-4-(acetyl-D-prolyl)-3-((S)-sec-butyl)-1,3,4,5-tetrahydro-2H-benzo[e][1,4]diazepin-2-one]: the AC1.4 was 1.76 µM.

On to `CC[C@H](C)[C@H]1C(=O)Nc2ccccc2CN1C(=O)[C@@H](C)NC(C)=O` [Compound 198, N-((R)-1-((S)-3-((S)-sec-butyl)-2-oxo-1,2,3,5-tetrahydro-4H-benzo[e][1,4]diazepin-4-yl)-1-oxopropan-2-yl)acetamide], for which the AC1.4 is 1.66 µM.

`CC[C@H](C)[C@H]1C(=O)Nc2ccccc2CN1C(=O)CC(C)O` (stereo partly drawn) [Compound 199, (3S)-3-((S)-sec-butyl)-4-(3-hydroxybutanoyl)-1,3,4,5-tetrahydro-2H-benzo[e][1,4]diazepin-2-one]: the AC1.4 was 0.94 µM.

As for `C[C@@H](OCc1ccccc1)[C@H]1C(=O)Nc2ccccc2CN1C(=O)c1cnn(C)c1` [Compound 200, (S)-3-((R)-1-(benzyloxy)ethyl)-4-(1-methyl-1H-pyrazole-4-carbonyl)-1,3,4,5-tetrahydro-2H-benzo[e][1,4]diazepin-2-one], the AC1.4 amounted to 4.22 µM.
